Test results published in patent publication US20240398757A1 (COCRYSTAL PHARMA, INC., priority 2022, published 2024).

Molecular target: T1, SARS2 protease (Severe acute respiratory syndrome coronavirus 2, UniProt P0DTD1)
T1 construct: SARS2 protease was added to a final concentration of 30 nM
Assay: SARS-CoV-2 protease inhibition assay (SARS2 FRET protease assay)
Format: biochemical
Settings: IC50 (μM), SARS2 protease 30 nM, peptide substrate 1.3 μM, 120 minutes at 37° C., compounds 20 μM to 0.075 nM

Structure (SMILES)	IC50
CC(C)C[C@H](NC(=O)O[C@H](c1ccc(Cl)cc1)C1(c2cccc(Cl)c2)CC1)C(=O)N[C@H](C=O)C[C@@H]1CCNC1=O [Compound A45]	20 nM
CCC(CC)(c1cccc(Cl)c1)C(OC(=O)N[C@@H](CC(C)C)C(=O)N[C@H](C=O)C[C@@H]1CCNC1=O)c1ccc(Cl)cc1 (stereo partly shown) [Compound A46]	1740 nM
CC(C)(c1cccc(F)c1)C(OC(=O)N[C@@H](CC1CCCCC1)C(=O)N[C@@H](C[C@@H]1CCNC1=O)C(=O)C(=O)NC1CC1)c1ccccc1 (stereo partly shown) [Compound A47]	620 nM
CC(C)C[C@H](NC(=O)OC(c1ccc(Cl)cc1)C1(c2cccc(Cl)c2)CCCCC1)C(=O)N[C@H](C=O)C[C@@H]1CCNC1=O (stereo partly shown) [Compound A49]	380 nM
CCNC(=O)C(=O)[C@H](C[C@@H]1CCNC1=O)NC(=O)[C@H](CC1CCCCC1)NC(=O)OC(c1ccccc1)C(F)(F)c1cccc(Cl)c1 (stereo partly shown) [Compound A50]	10 nM
CCCC[C@H](NC(=O)OC(c1ccccc1)C(F)(F)c1cccc(Cl)c1)C(=O)N[C@@H](C[C@@H]1CCNC1=O)C(=O)C(=O)NC1CC1 (stereo partly shown) [Compound A51]	130 nM
CC(C)C[C@H](NC(=O)OC(c1ccccc1)C1(c2cccc(Cl)c2)CCNCC1)C(=O)N[C@@H](C[C@@H]1CCNC1=O)C(=O)C(=O)NC1CC1 (stereo partly shown) [Compound A52]	1420 nM
CC(C)C[C@H](NC(=O)O[C@@H](c1cccc(Cl)c1)C1(c2cccc(Cl)c2)CCCCC1)C(=O)N[C@H](C=O)C[C@@H]1CCNC1=O [Compound A54]	140 nM
CCCC[C@H](NC(=O)OC(c1ccc(F)cc1)C(F)(F)c1cccc(F)c1)C(=O)N[C@H](C=O)C[C@@H]1CCNC1=O (stereo partly shown) [Compound A55]	10 nM
CCCC[C@H](NC(=O)OC(c1ccccc1)C1(c2cccc(F)c2)CC1)C(=O)N[C@@H](C[C@@H]1CCNC1=O)C(=O)C(=O)NC1CC1 (stereo partly shown) [Compound A56]	560 nM
CC(C)C[C@H](NC(=O)OC(c1ccccc1)C(C)(C)c1cccc(Cl)c1)C(=O)N[C@@H](C[C@@H]1CCCNC1=O)C(=O)C(=O)NC1CC1 (stereo partly shown) [Compound A57]	1130 nM
CCCC[C@H](NC(=O)OC(c1ccc(F)cc1)C(F)(F)c1cccc(F)c1)C(=O)N[C@@H](C[C@@H]1CCNC1=O)C(=O)C(=O)NC1CC1 (stereo partly shown) [Compound A58]	160 nM
CC(C)C[C@H]1C(=O)N[C@H](C[C@@H]2CCNC2=O)[C@H](O)N1C(=O)OC(c1ccccc1)C1(c2cccc(Cl)c2)CCNCC1 (stereo partly shown) [Compound A59]	16200 nM
CC(C)C[C@H](NC(=O)O[C@H](c1ccc(Cl)cc1)C1(c2cccc(Cl)c2)CC1)C(=O)N[C@@H](C[C@@H]1CCNC1=O)C(=O)C(=O)NC1CC1 [Compound A60]	1910 nM
CCCC[C@H](NC(=O)O[C@@H](c1ccccc1)C(C)(C)c1cccc(Cl)c1)C(=O)N[C@H](C=O)C[C@@H]1CCNC1=O [Compound A61]	< 0.1 nM
CCCC[C@H](NC(=O)O[C@H](c1ccccc1)C(C)(C)c1cccc(Cl)c1)C(=O)N[C@H](C=O)C[C@@H]1CCNC1=O [Compound A62]	148 nM
CCCC[C@H](NC(=O)OC(c1ccc(F)cc1)C1(c2cccc(F)c2)CC1)C(=O)N[C@H](C=O)C[C@@H]1CCNC1=O (stereo partly shown) [Compound A64]	3 nM
CC(C)C[C@H](NC(=O)OC(c1cccc(Cl)c1)C1(c2cccc(Cl)c2)CCCCC1)C(=O)N[C@@H](C[C@@H]1CCNC1=O)C(=O)C(=O)NC1CC1 (stereo partly shown) [Compound A65]	571 nM
CCC(CC)(c1cccc(Cl)c1)C(OC(=O)N[C@@H](CC(C)C)C(=O)N[C@H](C=O)C[C@@H]1CCNC1=O)c1cccc(Cl)c1 (stereo partly shown) [Compound A66]	259 nM
O=C[C@H](C[C@@H]1CCNC1=O)NC(=O)[C@H](CC1CCCCC1)NC(=O)OC(c1ccccc1)C(F)(F)c1cccc(F)c1 (stereo partly drawn) [Compound A67, 2,2-difluoro-2-(3-fluorophenyl)-1-phenylethyl ((S)-3-cyclohexyl-1-oxo-1-(((S)-1-oxo-3-((S)-2-oxopyrrolidin-3-yl)propan-2-yl)amino)propan-2-yl)carbamate]	2 nM
CCCC[C@H](NC(=O)OC(c1ccccc1)C(C)(C)c1cccc(F)c1)C(=O)N[C@@H](C[C@@H]1CCNC1=O)C(=O)C(=O)NCC (stereo partly shown) [Compound A68]	29 nM
CCCC[C@H](NC(=O)OC(c1ccc(F)cc1)C(F)(F)c1cccc(Cl)c1)C(=O)N[C@H](C=O)C[C@@H]1CCNC1=O (stereo partly shown) [Compound A69]	8 nM
CCCC[C@H](NC(=O)OC(c1ccc(F)cc1)C(F)(F)c1cccc(Cl)c1)C(=O)N[C@@H](C[C@@H]1CCNC1=O)C(=O)C(=O)NC1CC1 (stereo partly shown) [Compound A70]	28 nM
CCCC[C@H](NC(=O)OC(c1ccc(F)cc1)C1(c2cccc(F)c2)CC1)C(=O)N[C@@H](C[C@@H]1CCNC1=O)C(=O)C(=O)NC1CC1 (stereo partly shown) [Compound A71]	222 nM
CC(C)C[C@H](NC(=O)O[C@@H](c1ccccc1)C(F)(F)c1cccc(Cl)c1)C(=O)N[C@H](C=O)C[C@@H]1CCNC1=O [Compound A72, 2-(3-chlorophenyl)-2,2-difluoro-1-phenylethyl ((S)-4-methyl-1-oxo-1-(((S)-1-oxo-3-((S)-2-oxopyrrolidin-3-yl)propan-2-yl)amino)pentan-2-yl)carbamate]	< 0.01 nM

Structure (SMILES)	IC50
CCCC[C@H](NC(=O)OC(c1ccccc1)C(F)(F)c1cccc(Cl)c1)C(=O)NC(CC1CC(C)(C)NC1=O)C(=O)C(=O)NC1CC1 (stereo partly shown) [Compound A73]	1390 nM
O=C(N[C@@H](CC1CCCCC1)C(=O)N[C@@H](C[C@@H]1CCNC1=O)C(=O)C(=O)NC1CC1)OC(c1ccccc1)C(F)(F)c1cccc(F)c1 (stereo partly drawn) [Compound A74, 2,2-difluoro-2-(3-fluorophenyl)-1-phenylethyl ((S)-3-cyclohexyl-1-(((S)-4-(cyclopropylamino)-3,4-dioxo-1-((S)-2-oxopyrrolidin-3-yl)butan-2-yl)amino)-1-oxopropan-2-yl)carbamate]	186 nM
O=C(N[C@@H](CC1CCCCC1)C(=O)N[C@@H](C[C@@H]1CCNC1=O)C(O)S(=O)(=O)O)OC(c1ccccc1)C(F)(F)c1cccc(Cl)c1 (stereo partly shown) [Compound A75]	9 nM
CCCC[C@H](NC(=O)OC(c1ccc(F)cc1)C1(c2cccc(Cl)c2)CC1)C(=O)N[C@@H](C[C@@H]1CCNC1=O)C(=O)C(=O)NC1CC1 (stereo partly shown) [Compound A76]	53 nM
CCCC[C@H](NC(=O)OC(c1ccccc1)C(F)(F)c1cccc(F)c1)C(=O)N[C@H](C=O)C[C@@H]1CCNC1=O (stereo partly drawn) [Compound A77, 2,2-difluoro-2-(3-fluorophenyl)-1-phenylethyl ((S)-1-oxo-1-(((S)-1-oxo-3-((S)-2-oxopyrrolidin-3-yl)propan-2-yl)amino)hexan-2-yl)carbamate]	9 nM
CCCC[C@H](NC(=O)OC(c1cccc(F)c1)C(F)(F)c1cccc(F)c1)C(=O)N[C@H](C=O)C[C@@H]1CCNC1=O (stereo partly shown) [Compound A78]	9 nM
CC(C)C[C@H](NC(=O)O[C@H](c1ccccc1)C(F)(F)c1cccc(Cl)c1)C(=O)N[C@H](C=O)C[C@@H]1CCNC1=O [Compound A79]	13 nM
CCCC[C@H](NC(=O)OC(c1cccc(F)c1)C(F)(F)c1cccc(F)c1)C(=O)N[C@@H](C[C@@H]1CCNC1=O)C(=O)C(=O)NC1CC1 (stereo partly shown) [Compound A80]	140 nM
CCCC[C@H](NC(=O)OC(c1ccccc1)C(F)(F)c1cccc(Cl)c1)C(=O)N[C@H](C=O)CC1CC(C)(C)NC1=O (stereo partly shown) [Compound A81]	470 nM
CC(C)C[C@H](NC(=O)OC(c1cccc(Cl)c1)C1(c2cccc(Cl)c2)CCNCC1)C(=O)N[C@@H](C[C@@H]1CCNC1=O)C(=O)C(=O)NC1CC1 (stereo partly shown) [Compound A83]	510 nM
CC(C)C[C@H](NC(=O)OC(c1ccc(Cl)cc1)C1(c2cccc(Cl)c2)CCN(C(=O)OC(C)(C)C)CC1)C(=O)N[C@H](C=O)C[C@@H]1CCNC1=O (stereo partly shown) [Compound A85]	460 nM
CC(C)C[C@H](NC(=O)OC(c1cccc(Cl)c1)C1(c2cccc(Cl)c2)CCN(C(=O)OC(C)(C)C)CC1)C(=O)N[C@H](C=O)C[C@@H]1CCNC1=O (stereo partly shown) [Compound A86]	370 nM
CCCC[C@H](NC(=O)OC(c1ccccc1)C(F)(F)c1cccc(F)c1)C(=O)N[C@@H](C[C@@H]1CCNC1=O)C(=O)C(=O)NC1CC1 (stereo partly shown) [Compound A87]	90 nM
CC(C)C[C@H](NC(=O)OC(c1ccc(Cl)cc1)C1(c2cccc(Cl)c2)CCN(C(=O)OC(C)(C)C)CC1)C(=O)N[C@@H](C[C@@H]1CCNC1=O)C(=O)C(=O)NC1CC1 (stereo partly shown) [Compound A88]	630 nM
CCC[C@H](NC(=O)OC(c1ccccc1)C(F)(F)c1cccc(F)c1)C(=O)N[C@H](C=O)C[C@@H]1CCNC1=O (stereo partly shown) [Compound A89]	20 nM
CCCC[C@H](NC(=O)OC(c1ccccc1)C1(c2cccc(Cl)c2)CC1)C(=O)N[C@H](C=O)C[C@@H]1CCNC1=O (stereo partly shown) [Compound A90]	40 nM
CCCC[C@H](NC(=O)OC(c1ccc(F)cc1)C1(c2cccc(Cl)c2)CC1)C(=O)N[C@H](C=O)C[C@@H]1CCNC1=O (stereo partly shown) [Compound A91]	10 nM
CC(C)C[C@H](NC(=O)OC(c1ccc(Cl)cc1)C1(c2cccc(Cl)c2)CCNCC1)C(=O)N[C@@H](C[C@@H]1CCNC1=O)C(=O)C(=O)NC1CC1 (stereo partly shown) [Compound A92]	1120 nM
O=C[C@H](C[C@@H]1CCNC1=O)NC(=O)[C@H](CC1CCCC1)NC(=O)OC(c1ccccc1)C(F)(F)c1cccc(Cl)c1 (stereo partly drawn) [Compound A93, 2-(3-chlorophenyl)-2,2-difluoro-1-phenylethyl ((S)-3-cyclopentyl-1-oxo-1-(((S)-1-oxo-3-((S)-2-oxopyrrolidin-3-yl)propan-2-yl)amino)propan-2-yl)carbamate]	0.3 nM
O=C(N[C@@H](CC1CC1)C(=O)N[C@@H](C[C@@H]1CCNC1=O)C(=O)C(=O)NC1CC1)OC(c1ccccc1)C(F)(F)c1cccc(Cl)c1 (stereo partly shown) [Compound A94]	12.3 nM
O=C[C@H](C[C@@H]1CCNC1=O)NC(=O)[C@H](CC1CC1)NC(=O)OC(c1ccccc1)C(F)(F)c1cccc(Cl)c1 (stereo partly shown) [Compound A95]	0.9 nM
CCCC[C@H](NC(=O)OC(c1cccc(F)c1)C1(c2cccc(Cl)c2)CC1)C(=O)N[C@H](C=O)C[C@@H]1CCNC1=O (stereo partly shown) [Compound A96]	7 nM
CCCC[C@H](NC(=O)OC(c1cccc(F)c1)C1(c2cccc(F)c2)CC1)C(=O)N[C@H](C=O)C[C@@H]1CCNC1=O (stereo partly shown) [Compound A97]	2.1 nM
CCC[C@H](NC(=O)OC(c1ccccc1)C(F)(F)c1cccc(Cl)c1)C(=O)N[C@H](C=O)C[C@@H]1CCNC1=O (stereo partly shown) [Compound A98]	1.9 nM
